Results on two compounds are retold here after EPA's ToxValDB 9.5 (doi:10.2903/j.efsa.2006.87r).

One data set relates to Bibionidae. To be noted: chronic/long-term; duration: 28 days.
In a further data set the test system is Bird. To be noted: for LD50: acute, oral, unspecified, mortality.
The subject of a further data set is Daphnia magna. To be noted: chronic/long-term; duration: 21 days; reproduction.
The next data set has as its system Lepomis macrochirus. To be noted: acute; duration: 96 hours; mortality.
The next data set relates to Oncorhynchus mykiss. Conditions: chronic/long-term; duration: 28 days; growth.
Another data set deals with Aphidius rhopalosiphi. To be noted: not reported.
The next data set concerns Apis mellifera. To be noted: acute; duration: 48 hours; oral; unspecified; mortality.
The test system of a further data set is Canidae. Conditions: chronic; duration: 1 years; oral; Dog Other.
The next data set concerns Oryctolagus sp. To be noted: reproduction developmental; mortality.

In brackets after ≈: the same amount, converted by molar mass.

Broadly, the NOAEL is the highest tested level that showed no adverse finding.

As to `COC(=O)[C@@H](C)Oc1ccc(Oc2ncc(C(F)(F)F)cc2Cl)cc1` [Haloxyfop-P-methyl], the figures for the NOEC in the data set with Bibionidae, in the data set with Daphnia magna and in the data set with Oncorhynchus mykiss were 2.5 mg/L, 0.509 mg/L and 0.0052 mg/L, respectively. The compound further showed an LD50 with Bird of 1160 mg/kg-day. This compound yielded an LC50 with Lepomis macrochirus of 0.0884 mg/L (≈ 0.235 µM).

As for `C[C@@H](Oc1ccc(Oc2ncc(C(F)(F)F)cc2Cl)cc1)C(=O)O` [Haloxyfop-P], the LC50 (acute, oral, diet, mortality) is greater than 1110 mg/kg-day and the LC50 in the data set with Tagia sp. (acute, duration: 14 days, mortality) amounted to 830 mg/kg. The NOAEL (chronic/long-term) was determined as 1 mg/kg-day; the no observed adverse effect level (NOAEL) with Canidae was 0.5 mg/kg-day; the NOAEL with Oryctolagus sp. was 7.5 mg/kg-day; the NOAEL with Rattus norvegicus (chronic, duration: 2 years, organ weight) stood at 0.065 mg/kg-day; the NOAEL with Rattus norvegicus (reproduction developmental, body weight) was determined as 0.065 mg/kg-day. Moreover, the LEL in the data set on Aphidius rhopalosiphi (mortality) stood at 108 g/ha; in the data set on Aphidius rhopalosiphi (reproduction), 5.7 g/ha. Besides, the LD50 in the data set on Apis mellifera is greater than 100 µg/piece; in the data set on Bird it was 414 mg/kg; in the data set on Rattus norvegicus (acute, oral, mortality) it was no less than 300 mg/kg. Further, the NOEC with Bird (reproductive) is 17.1 mg/kg-day; with Tagia sp. (chronic/long-term, reproduction) it was 810 g/ha.
